{"source": "patent US12251373B2", "about": "“Compounds and methods of treating retinal degeneration” (CASE WESTERN RESERVE UNIVERSITY, priority 2017, dated 2025)", "assay_type_in_all_cases": "in vivo, mouse", "key": {"Abca4−/−Rdh8−/− mice": {"tested_on": "Abca4−/−Rdh8−/− mice", "assay": "Bright light-induced retinal degeneration", "details": "50 or 200 mg kg−1 bw i.p. 30 min before 10,000 lux for 30 min; SD-OCT and HE seven days later", "method": "Abca4^−/−Rdh8^−/−42 mice with a 129Sv/Ev or C57BL/6 mixed background were used for light-induced retinal degeneration assays. […] Male and female C57BL/6 mice (Jackson Laboratory, Bar Harbor, ME) at six weeks of age were used to test the effects of YC-001 treatment on the retinoid cycle and bw as well as to determine parenterally administrated YC-001 enter the eyes. YC-001 was dissolved in DMSO at 80-160 mg mL^−1, and the solution was provided to mice by i.p. injection. All mice were housed and maintained in a 12 h light (≤10 lux)/12 h dark cycle in the Animal Resource Center at the School of Medicine, CWRU. […]\nRetinal degeneration was initiated by exposing Abca4^−/−Rdh8^−/− mice for 30 min to white light with an intensity of 10,000 lux (150-W spiral lamp, Hampton Bay, Home Depot, Atlanta, GA USA). […] Retinal structures were analyzed by SD-OCT seven days after bright light exposure. […]\nTo assess the effect of YC-001 treatment on Abca4^−/−Rdh8^−/− mice following bright light-induced retinal degeneration, we performed ultrahigh-resolution SD-OCT (Bioptigen, Morrisville, NC) for in vivo imaging of mouse retinas. […] To measure changes to photoreceptors in the retinas challenged with bright light and assess the effect of YC-001 on retinal protection, the thickness of the ONL was measured along the scanned SD-OCT image at 8 points from the nasal to temporal end of the retina. […]"}, "C57BL/6 mice [1]": {"tested_on": "C57BL/6 mice", "assay": "Retinoid cycle analyses (11-cis-retinyl oxime after bleaching)", "details": "200 mg kg−1 bw i.p., compared to DMSO", "method": "To test if treatment with YC-001 affects visual pigment regeneration, we quantified the 11-cis-retinyl oxime extracted from retinas of C57BL/6 mice after different periods of dark adaptation following exposure to bright light. Mice at 6 weeks of age were administered YC-001 at 200 mg kg^−1 bw via i.p. injection. At 30 min following YC-001 administration, eyes were dilated with 1% tropicamide. Mice then were anesthetized with a cocktail containing 20 mg mL^−1 of ketamine and 1.75 mg mL^−1 of xylazine at a dose of 4 μL g^−1 bw. Anesthetized mice were exposed to bright light with an intensity of 10,000 lux for 10 min to bleach about 90% of the rhodopsin pigment. Mice then were returned to the dark for recovery. Animals then were euthanized at 0, 2, 4, 6 or 24 h after bleaching and recovery in the dark, and their eyes were removed and homogenized in 1 mL of 1:1 PBS:ethanol mixture (v/v) containing 40 mM hydroxylamine. […] 11-cis-Retinyl oxime released from the regenerated rhodopsin pigments were separated on an Agilent Sil column (5 μm, 4.6×250 mm) with an isocratic flow of 10% ethyl acetate in hexanes (1.5 mL min^−1) and detected at 325 nm. Amounts of 11-cis-retinyl oximes per eye were quantified by normalizing the peak area to an 11-cis-retinyl oxime standard. 11-cis-Retinyl oximes were quantified in three eye samples per condition, and the means and s.d.s were calculated."}, "C57BL/6 mice [2]": {"tested_on": "C57BL/6 mice", "assay": "Scotopic ERG recovery after bleaching", "details": "200 mg kg−1 i.p., compared to DMSO", "method": "C57BL/6 mice at 2 months of age were placed in the dark overnight. Mice then were divided into a YC-001-treated group, a DMSO-treated group, and an unbleached group. Each group contained 3 mice (2 females and 1 male). Mice were given a single dose of YC-001 at 200 mg kg^−1 by i.p. injection. The DMSO group was treated with an equivalent volume of DMSO compared to the YC-001-treated group. One h after YC-001 or DMSO administration, mouse eyes were treated with 1% tropicamide eye drops for pupil dilation, exposed to 2,000 lux of illumination for 5 min and returned to the dark. Mice were anesthetized after a bleach for scotopic ERG recordings. Briefly, every 5 min a single-flash scotopic ERG at 1.6 cd·s·m^−2 was recorded until 1 h after a bleach. A-wave amplitudes of each ERG recording were measured, averaged from three animals, and plotted as a function of time and fitted to a linear function using Origin software version 8.1."}}}
{"smiles": "O=C1OCC(c2ccc(Cl)s2)=C1c1cccs1", "note": "[YC-001]", "values": [{"measurement": "protection of the ONL from light-induced damage", "setting": "Abca4−/−Rdh8−/− mice", "result": "dose-dependent protection of the ONL"}, {"measurement": "recovery of 11-cis-retinyl oxime after photobleaching", "setting": "C57BL/6 mice [1]", "result": "little difference"}, {"measurement": "scotopic ERG a-wave recovery after bleach", "setting": "C57BL/6 mice [2]", "result": "did not inhibit rhodopsin regeneration"}]}
